According to ChEMBL document CHEMBL1155411, “Design of two new chemotypes for inhibiting the Janus kinase 2 by scaffold morphing” (Bioorg Med Chem Lett, 2010):

Biological target: Tyrosine-protein kinase JAK2 (Homo sapiens, UniProt O60674)
Assay: Inhibition of recombinant GST tagged JAK2 after 60 mins by Caliper mobility shift assay

Sequence of Tyrosine-protein kinase JAK2 (O60674 whole entry): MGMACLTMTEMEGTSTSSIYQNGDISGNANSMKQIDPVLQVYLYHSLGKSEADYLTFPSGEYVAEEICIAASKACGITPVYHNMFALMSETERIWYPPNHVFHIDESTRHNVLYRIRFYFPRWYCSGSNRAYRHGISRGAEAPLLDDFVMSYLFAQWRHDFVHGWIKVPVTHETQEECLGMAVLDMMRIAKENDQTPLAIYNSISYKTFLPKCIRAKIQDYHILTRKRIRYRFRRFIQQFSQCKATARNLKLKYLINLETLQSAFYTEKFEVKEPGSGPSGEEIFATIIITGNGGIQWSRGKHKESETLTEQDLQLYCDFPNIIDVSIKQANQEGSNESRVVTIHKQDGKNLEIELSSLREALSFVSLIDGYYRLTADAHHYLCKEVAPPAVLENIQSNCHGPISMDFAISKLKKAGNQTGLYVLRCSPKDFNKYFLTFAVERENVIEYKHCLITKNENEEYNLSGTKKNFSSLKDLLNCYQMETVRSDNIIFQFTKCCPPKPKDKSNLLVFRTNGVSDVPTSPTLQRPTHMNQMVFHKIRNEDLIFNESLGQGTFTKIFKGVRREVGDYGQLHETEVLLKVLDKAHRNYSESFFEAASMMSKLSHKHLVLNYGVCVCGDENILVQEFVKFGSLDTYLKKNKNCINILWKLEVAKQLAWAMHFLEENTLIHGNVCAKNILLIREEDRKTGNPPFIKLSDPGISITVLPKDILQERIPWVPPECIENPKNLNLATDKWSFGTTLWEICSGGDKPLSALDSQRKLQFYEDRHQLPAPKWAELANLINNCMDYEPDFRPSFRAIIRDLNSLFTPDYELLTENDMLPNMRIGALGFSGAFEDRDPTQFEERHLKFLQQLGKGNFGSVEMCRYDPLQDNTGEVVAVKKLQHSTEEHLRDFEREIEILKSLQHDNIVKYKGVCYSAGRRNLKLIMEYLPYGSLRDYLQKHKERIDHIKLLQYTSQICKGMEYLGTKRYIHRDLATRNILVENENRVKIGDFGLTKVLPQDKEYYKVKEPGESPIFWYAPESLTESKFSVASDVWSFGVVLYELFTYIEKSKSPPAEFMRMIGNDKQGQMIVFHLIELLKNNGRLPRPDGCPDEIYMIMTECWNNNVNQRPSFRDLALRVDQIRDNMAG

COc1cc(Nc2ncc3ccn(-c4ccccn4)c3n2)cc(OC)c1OC
IC50: 5.9 nM
